From article PMC11279465, “Dual Inhibitors of P-gp and Carbonic Anhydrase XII (hCA XII) against Tumor Multidrug Resistance with Piperazine Scaffold” (Molecules, 2024)

Key:
P-gp = P-gp (Homo sapiens, UniProt P08183); assay: Calcein-AM transport inhibition in MDCK-MDR1 cells; type: cell-based; design: expressed in transfected cells; host or cells: MDCK (Madin-Darby Canine Kidney); conditions: mean ± SEM
Source text: The MDR interaction potency of these compounds was studied by detecting the inhibition of the P-gp-, MRP1- or BCRP-mediated efflux of a substrate in cells overexpressing the studied pumps. In detail, we measured the following: (i) the transport inhibition of the profluorescent probe calcein-AM (P-gp and MRP1 substrate) in MDCK-MDR1 and MDCK-MRP1 cells (P-gp- and MRP1-overexpressing cells, respectively); (ii) the transport inhibition of the fluorescent probe Hoechst 33342 (BCRP substrate) in MDCK-BCRP cells (BCRP-overexpressing cells).
Experiments were performed as previously described. MDCK-MDR1 and MDCK-MRP1 cells (30,000 cells per well) were seeded in a 96-well black CulturePlate in 100 µL of medium and allowed to grow overnight in a humidified atmosphere of 5% CO2 at 37 °C. Tested compounds (100 µL) in a final concentration ranging between 0.01 nM and 100 µM, solubilized in culture medium, were added to the monolayers. After 30 min in a humidified atmosphere of 5% CO2 at 37 °C, 100 µL of Calcein-AM in phosphate-buffered saline (PBS) was added to obtain a final concentration of 2.5 µM and the plate was incubated for 30 min. All wells were washed 3 times with 100 µL ice-cold PBS and read with Victor3 (PerkinElmer) after adding 100 µL of cold PBS. Excitation and emission wavelengths of 485 nm and 535 nm, respectively, were used. In these experimental conditions, cell Calcein-AM accumulation in the absence and in the presence of each tested compound was evaluated and compared to the basal level of fluorescence derived from untreated cells. The increase in fluorescence from the baseline level was measured in the treated wells. EC50 values were determined by fitting the rate of fluorescence increase versus log[dose].

HT29/DOX cells = assay: Membrane fluidity; type: cell-based, human; conditions: 1 µM
Protocol: (§1) Membrane fluidity was measured fluorometrically using the Membrane Fluidity Kit, Abcam, according to the manufacturer’s instructions.

A549/DOX cells = assay: Membrane fluidity; type: cell-based, human; conditions: 1 µM
Protocol: as §1

K562/DOX cells [1] = assay: Doxorubicin cytotoxicity enhancement assay (MTT); type: cell-based, human; conditions: 72 h
Method in brief: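 K562/DOX cells exposed 72 h to varying doxorubicin concentrations plus 1 or 3 µM test compound. Viability by MTT absorbance, expressed as percentage of untreated control cells.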

K562/DOX cells [2] = assay: Intrinsic cytotoxicity (MTT); type: cell-based, human; conditions: compound alone at 3 µM, 72 h
Protocol: Compounds were first studied at 1 and 3 µM concentrations to evaluate their intrinsic cytotoxicity in both the parental K562 and the resistant K562/DOX cell lines, using the MTT assay. All compounds had no intrinsic cytotoxicity in the parental line.
The intrinsic toxicity of the studied compounds was determined by an MTT assay. K562 and K562/DOX were exposed for 72 h with compounds at 1 and 3 µM concentrations while HT29, A549, HT29/DOX and A549/DOX cells were incubated for 48 h with compounds used at different concentrations (from 10 nM to 50 µM). The percentage of growth compared to the untreated control was transformed into histograms with the GraphPad Prism 5 program.

Chain of P-gp (P08183 whole entry): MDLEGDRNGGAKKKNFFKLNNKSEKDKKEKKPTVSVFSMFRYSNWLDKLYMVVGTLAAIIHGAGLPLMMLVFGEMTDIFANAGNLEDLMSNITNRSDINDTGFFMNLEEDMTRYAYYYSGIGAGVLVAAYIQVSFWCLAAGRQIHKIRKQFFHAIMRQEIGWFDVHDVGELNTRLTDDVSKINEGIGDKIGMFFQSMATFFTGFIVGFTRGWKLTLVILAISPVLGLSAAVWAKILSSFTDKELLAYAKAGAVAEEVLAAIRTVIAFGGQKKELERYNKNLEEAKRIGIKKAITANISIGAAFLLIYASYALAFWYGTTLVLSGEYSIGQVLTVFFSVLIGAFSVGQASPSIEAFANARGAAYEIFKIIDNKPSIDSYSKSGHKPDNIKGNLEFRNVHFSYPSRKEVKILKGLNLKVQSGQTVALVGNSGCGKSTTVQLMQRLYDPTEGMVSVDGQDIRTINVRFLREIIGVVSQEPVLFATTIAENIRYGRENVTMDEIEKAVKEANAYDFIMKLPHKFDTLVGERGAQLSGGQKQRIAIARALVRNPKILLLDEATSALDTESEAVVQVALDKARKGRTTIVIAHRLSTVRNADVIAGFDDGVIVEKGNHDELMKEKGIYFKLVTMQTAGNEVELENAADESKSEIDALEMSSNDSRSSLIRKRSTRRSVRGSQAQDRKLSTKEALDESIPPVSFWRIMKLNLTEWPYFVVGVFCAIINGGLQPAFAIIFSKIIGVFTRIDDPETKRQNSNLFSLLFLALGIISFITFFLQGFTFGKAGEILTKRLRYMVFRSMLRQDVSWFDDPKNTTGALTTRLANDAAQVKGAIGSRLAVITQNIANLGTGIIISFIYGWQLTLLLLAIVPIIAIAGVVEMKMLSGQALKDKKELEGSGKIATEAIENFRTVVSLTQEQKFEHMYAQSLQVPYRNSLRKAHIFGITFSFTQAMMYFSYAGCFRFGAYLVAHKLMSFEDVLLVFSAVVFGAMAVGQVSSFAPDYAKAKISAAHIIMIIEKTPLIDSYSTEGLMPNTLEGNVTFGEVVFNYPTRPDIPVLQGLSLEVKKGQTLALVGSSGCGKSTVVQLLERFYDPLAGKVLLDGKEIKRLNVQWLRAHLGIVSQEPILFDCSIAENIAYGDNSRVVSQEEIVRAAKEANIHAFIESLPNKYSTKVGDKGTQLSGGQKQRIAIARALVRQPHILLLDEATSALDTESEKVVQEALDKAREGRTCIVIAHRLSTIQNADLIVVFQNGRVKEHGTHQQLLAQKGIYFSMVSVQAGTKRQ

Structure (SMILES) | EC50 (P-gp) | membrane fluidity (HT29/DOX cells) | membrane fluidity (A549/DOX cells) | RF (Reversal Fold: IC50 of doxorubicin alone / in presence of modulator) (K562/DOX cells [1]; compound at 1 µM) | reduction of cellular viability (K562/DOX cells [2]) | RF (Reversal Fold: IC50 of doxorubicin alone / in presence of modulator) (K562/DOX cells [1]; compound at 3 µM)
COc1ccc(C(CCCN2CCN(CCCCOc3ccc4ccc(=O)oc4c3)CC2)c2ccc(OC)cc2)cc1 [Compound 27, 7-(4-(4-(4,4-Bis(4-methoxyphenyl)butyl)piperazin-1-yl)butoxy)-2H-chromen-2-one] | 3.99 ± 0.11 µM | increased membrane fluidity | increased membrane fluidity | 8.1 | 30–50% | 
COc1ccc(C(CCCN2CCN(CCCOc3ccc4oc(=O)ccc4c3)CC2)c2ccc(OC)cc2)cc1 [Compound 32, 6-(3-(4-(4,4-Bis(4-methoxyphenyl)butyl)piperazin-1-yl)propoxy)-2H-chromen-2-one] | 4.53 ± 0.17 µM | increased membrane fluidity | increased membrane fluidity | 3.6 |  | 7.9
